This is an account of results in patent US8410078B2, “Composition and methods to treat cardiac diseases” (University of Connecticut, priority 2006, dated 2013).

Each structure is given as a SMILES string.

One experiment has as its system WT mice. The experiment in a line: Survival after LAD ligation-induced myocardial infarction in WT mice. The format is in vivo, mouse. The conditions noted are these: treated from two days post-infarction, up to 60 days post-infarction. How it is done: Ligation of LAD in anesthetized mice was carried out using procedures similar to those previously described in the art. Adult WT (BL6) or P2X4R Tg mice 12-14 weeks old of either gender were anesthetized with ketamine (100 mg/kg) and xylazine (5 mg/kg) intraperitoneally. Under a dissecting microscope, mice were placed in a supine position on a heated pad to keep body temperature at 37° C. After endotracheal intubation, the cannula was connected to a small rodent ventilator (Hugo Sachs-Harvard Apparatus, Minivent Type 845, Holliston, Mass.) on room air with a stroke volume of 0.3 ml at a rate of 160 per min. A left intercostals thoracotomy was performed and myocardial infarction was produced by ligating the left anterior descending coronary artery with an 8-0 nylon suture within 2 mm below the edge of left atrium near the origin of the artery. The ligation was deemed successful when the left anterior wall turned pale and the ligation was aimed to induce a 30-40% infarct size. Animals were used according to the approved protocols of the Institutional Review Board at University of Connecticut School of Medicine.
The LAD ligation-mediated ischemic cardiomyopathy was induced in WT mice. (FIG. 26) At two days post-infarction, 15 mice were treated with […] and 19 mice were treated with NS (normal saline as the vehicle control). […]

In another experiment the test system is intact CSQ mouse hearts. The experiment in a line: Cardiac function in intact CSQ mouse heart preparation. As for the experimental part: Following injection of heparin via tail vein (500 U/kg, iv) and anesthetization with nembutal (125 mg/kg for rats and 150 mg/kg for mice, ip) intraperitoneally, heart with all major vessels and lungs attached were excised. The aorta was then cannulated with a 20-gauge catheter, positioned about 2 mm above the coronary ostia. For the Langendorff method, a water-filled latex balloon (size #3) was inserted into the lumen of the left ventricle via the left atrium. The distal end of the balloon attached catheter was connected to a pressure transducer for measurement of intraventricular pressure and ±dP/dt. The balloon was inflated to a constantly held diastolic pressure of 5-7 mmHg. […]
For the working heart model, a column of KHS buffer produced a constant hydrostatic pressure of 65 mmHg (for rat) or 55 mmHg (for mice). […] Aortic flow was the amount of perfusate exiting the aortic cannula measured in […]. […]
The pressure recordings were channeled from amplifiers which had been pre-calibrated by a transducer simulator/calibrator (Ken Scientific Corp., Litchfield, Conn.). […] Data were analyzed by computer software (WorkBench for Windows+, Kent Scientific Corp) designed for an IBM-compatible computer (Dell). […] Data obtained with and without drug were analyzed by paired t test for possible statistically significant differences. […]

As to `Nc1nc(Cl)nc2c1ncn2C1[C@H]2C[C@@]2(COP(=O)(O)O)[C@@H](O)[C@H]1O` (stereo partly drawn) [MRS2339, (1′S,2′R,3′S,4′R,5′S)-4-(6-amino-2-chloro-9H-purin-9-yl)-1-[phosphoryloxymethyl]bicyclo[3.1.0]hexane-2,3-diol], the Post-infarction survival result in the experiment on WT mice was “greater than 95%”. In addition, in the experiment with intact CSQ mouse hearts, the “+dP/dt” value is given as “increased”.
